{"source": "DBAASP", "experiment_in_all_cases": "≥ marks a high value that may be exact or a test limit, other limits are often not marked, values filed in µg/mL are converted to µM", "key": {"[1]": {"tested_on": "Escherichia coli ATCC 25922"}, "[2]": {"tested_on": "Staphylococcus aureus Newman"}, "[3]": {"tested_on": "Staphylococcus aureus USA 200"}, "[4]": {"tested_on": "Bacillus subtilis 168"}, "[5]": {"tested_on": "Pseudomonas aeruginosa PAO1"}, "[6]": {"tested_on": "Candida tropicalis ATCC 13803"}, "[7]": {"tested_on": "Staphylococcus aureus USA 400"}, "[8]": {"tested_on": "Candida albicans ATCC 10231"}, "[9]": {"tested_on": "Staphylococcus aureus UAMS-1"}, "[10]": {"tested_on": "Klebsiella pneumoniae ATCC 13883"}, "[11]": {"tested_on": "Staphylococcus aureus MU50"}, "[12]": {"tested_on": "Staphylococcus epidermidis 1457"}, "[13]": {"tested_on": "Staphylococcus aureus USA 300"}, "[14]": {"tested_on": "Candida glabrata ATCC 2001"}, "[15]": {"tested_on": "Pseudomonas aeruginosa ATCC 10145"}, "[16]": {"tested_on": "Cryptococcus neoformans ATCC 32045"}, "[17]": {"tested_on": "Staphylococcus aureus ATCC 33591"}, "[18]": {"tested_on": "Escherichia coli ATCC 2592"}, "[19]": {"tested_on": "Pseudomonas aeruginosa ATCC 27853"}, "[20]": {"tested_on": "Acinetobacter baumannii 4-MRGN"}, "[21]": {"tested_on": "Enterococcus faecium"}, "[22]": {"tested_on": "Pseudomonas aeruginosa ATCC 19660"}, "[23]": {"tested_on": "Staphylococcus epidermidis ATCC 51625"}, "[24]": {"tested_on": "Candida albicans NRRL Y-326"}, "[25]": {"tested_on": "Enterobacter cloacae"}, "[26]": {"tested_on": "Staphylococcus aureus"}, "[27]": {"tested_on": "Fusarium solani NRRL 28548"}, "[28]": {"tested_on": "Staphylococcus aureus ATCC 33592"}, "[29]": {"tested_on": "Staphylococcus aureus ATCC 25923"}, "[30]": {"tested_on": "Klebsiella pneumoniae ATCC 10031"}, "[31]": {"tested_on": "Acinetobacter baumannii ATCC 17978"}, "[32]": {"tested_on": "Aspergillus fumigatus"}, "[33]": {"tested_on": "Staphylococcus aureus MR"}, "[34]": {"tested_on": "Mucor circinelloides NRRL 3631"}, "[35]": {"tested_on": "Candida krusei NRRL Y-27803"}, "[36]": {"tested_on": "Lichtheimia corymbifera NRRL 6251"}, "[37]": {"tested_on": "Candida parapsilosis NRRL Y-1761"}, "[38]": {"tested_on": "Aspergillus flavus ATCC MYA-3651"}, "[39]": {"tested_on": "Pseudomonas aeruginosa"}, "[40]": {"tested_on": "Candida tropicalis"}, "[41]": {"tested_on": "Escherichia coli"}}, "note": "“And” between values parts separate entries of the source, which are not always exact repeats. Identical values can stand only once.", "data": [{"smiles": "CC[C@H](C)[C@H](NC(=O)[C@@H](NC(=O)[C@@H]1CCCN1C(=O)[C@H](CC(C)C)NC(=O)[C@@H](NC(=O)[C@@H](N)CO)[C@@H](C)CC)[C@@H](C)O)C(=O)N[C@H](C(=O)N[C@@H](CO)C(=O)N[C@@H](Cc1ccccc1)C(=O)N[C@@H](CC(C)C)C(=O)N[C@@H](CO)C(=O)N[C@@H](CCCCN)C(=O)N[C@H](C(=O)N[C@@H](Cc1ccccc1)C(N)=O)C(C)C)C(C)C", "note": "[SILPTIVSFLSKVF]", "values": [{"measurement": "MIC", "setting": "[1]", "value": "> 50", "unit": "µM"}, {"measurement": "MIC", "setting": "[2]", "value": 3.1, "unit": "µM"}, {"measurement": "MIC", "setting": "[3]", "value": 3.1, "unit": "µM"}, {"measurement": "MIC", "setting": "[4]", "value": 6.3, "unit": "µM"}, {"measurement": "MIC", "setting": "[5]", "value": "> 50", "unit": "µM"}, {"measurement": "MIC", "setting": "[6]", "value": 3.1, "unit": "µM"}, {"measurement": "MIC", "setting": "[7]", "value": 3.1, "unit": "µM"}, {"measurement": "MIC", "setting": "[8]", "value": 12.5, "unit": "µM"}, {"measurement": "MIC", "setting": "[9]", "value": 25, "unit": "µM"}, {"measurement": "MIC", "setting": "[10]", "value": "≥ 50", "unit": "µM"}, {"measurement": "MIC", "setting": "[11]", "value": 6.2, "unit": "µM"}, {"measurement": "MIC", "setting": "[12]", "value": 3.1, "unit": "µM"}, {"measurement": "MIC", "setting": "[13]", "value": 3.1, "unit": "µM"}, {"measurement": "MIC", "setting": "[14]", "value": 12.5, "unit": "µM"}]}, {"smiles": "CC(C)C[C@H](NC(=O)[C@H](CCCCN)NC(=O)[C@H](CCCCN)NC(=O)[C@H](CC(C)C)NC(=O)[C@H](CC(C)C)NC(=O)[C@H](CCCCN)NC(=O)[C@H](CCCCN)NC(=O)[C@H](CC(C)C)NC(=O)[C@H](CC(C)C)NC(=O)[C@H](CCCCN)NC(=O)[C@H](CCCCN)NC(=O)[C@H](CC(C)C)NC(=O)[C@H](CC(C)C)NC(=O)[C@H](CCCCN)NC(=O)[C@H](CCCCN)NC(=O)[C@H](CC(C)C)NC(=O)[C@H](CC(C)C)NC(=O)[C@H](CCCCN)NC(=O)[C@H](CCCCN)NC(=O)[C@H](CC(C)C)NC(=O)[C@H](CC(C)C)NC(=O)[C@H](CCCCN)NC(=O)[C@H](CCCCN)NC(=O)[C@H](CC(C)C)NC(=O)[C@H](CC(C)C)NC(=O)[C@H](CCCCN)NC(=O)[C@H](CCCCN)NC(=O)[C@@H](N)CC(C)C)C(=O)O", "note": "[LKKLLKKLLKKLLKKLLKKLLKKLLKKL]", "values": [{"measurement": "MIC", "setting": "[15]", "value": "≥ 36.8", "unit": "µM"}, {"measurement": "MIC", "setting": "[8]", "value": 104, "unit": "µM"}, {"measurement": "MIC", "setting": "[16]", "value": "≥ 32.9", "unit": "µM"}, {"measurement": "MIC", "setting": "[17]", "value": "≥ 73.6", "unit": "µM"}, {"measurement": "MIC", "setting": "[18]", "value": 25.9, "unit": "µM"}]}, {"smiles": "CC[C@H](C)[C@H](NC(=O)[C@H](CCC(=O)O)NC(=O)[C@@H]1CSSC[C@@H]2NC(=O)[C@H](Cc3ccc(O)cc3)NC(=O)[C@@H](NC(=O)[C@@H](NC(=O)[C@H](C)N)[C@@H](C)O)CSSC[C@H](NC(=O)[C@H](CCCN=C(N)N)NC(=O)CNC(=O)[C@H]([C@@H](C)O)NC(=O)[C@H](CCCN=C(N)N)NC2=O)C(=O)N[C@@H](C)C(=O)N[C@@H]([C@@H](C)O)C(=O)N[C@@H](CCCN=C(N)N)C(=O)N[C@@H](CCC(=O)O)C(=O)N[C@@H](CO)C(=O)N[C@@H](CC(C)C)C(=O)N[C@@H](CO)C(=O)NCC(=O)N[C@@H](C(C)C)C(=O)N1)C(=O)N[C@@H](CO)C(=O)NCC(=O)N[C@@H](CCCN=C(N)N)C(=O)N[C@@H](CC(C)C)C(=O)N[C@@H](Cc1ccc(O)cc1)C(=O)N[C@@H](CCCN=C(N)N)C(=O)O", "note": "[ATCYCRTGRCATRESLSGVCEISGRLYR]", "values": [{"measurement": "MIC", "setting": "[19]", "value": "> 99.9", "unit": "µM"}, {"measurement": "MIC", "setting": "[20]", "value": "≥ 99.9", "unit": "µM"}, {"measurement": "MIC", "setting": "[21]", "value": "≥ 99.9", "unit": "µM"}]}, {"smiles": "CC[C@H](C)[C@H](NC(=O)[C@H](CCCCN)NC(=O)[C@H](C)NC(=O)[C@H](CCCN=C(N)N)NC(=O)[C@H](CC(C)C)NC(=O)[C@H](CCCN=C(N)N)NC(=O)[C@@H](NC(=O)[C@H](CCCCN)NC(=O)[C@@H](NC(=O)[C@H](CCCCN)NC(=O)[C@H](C)NC(=O)[C@H](CCCN=C(N)N)NC(=O)[C@H](CC(C)C)NC(=O)[C@H](CCCCN)NC(=O)[C@@H](N)Cc1ccccc1)[C@@H](C)CC)C(C)C)C(=O)N[C@@H](CCCCN)C(=O)N[C@@H](CC(C)C)C(N)=O", "note": "[FKLRAKIKVRLRAKIKL]", "values": [{"measurement": "MIC", "setting": "[22]", "value": 15.4, "unit": "µM"}, {"measurement": "MIC", "setting": "[1]", "value": 2.88, "unit": "µM"}, {"measurement": "MIC", "setting": "[23]", "value": 1.92, "unit": "µM"}, {"measurement": "MIC", "setting": "[19]", "value": "2.88 µM and 7.69 µM"}, {"measurement": "MIC", "setting": "[24]", "value": 30.7, "unit": "µM"}, {"measurement": "MIC", "setting": "[25]", "value": 2.72, "unit": "µM"}, {"measurement": "MIC", "setting": "[26]", "value": 2.72, "unit": "µM"}, {"measurement": "MIC", "setting": "[27]", "value": 0.961, "unit": "µM"}, {"measurement": "MIC", "setting": "[28]", "value": 3.84, "unit": "µM"}, {"measurement": "MIC", "setting": "[29]", "value": 2.88, "unit": "µM"}, {"measurement": "MIC", "setting": "[30]", "value": 15.4, "unit": "µM"}, {"measurement": "MIC", "setting": "[31]", "value": 7.69, "unit": "µM"}, {"measurement": "MIC", "setting": "[32]", "value": "≥ 43.5", "unit": "µM"}, {"measurement": "MIC", "setting": "[33]", "value": 3.84, "unit": "µM"}, {"measurement": "MIC", "setting": "[34]", "value": "≥ 61.5", "unit": "µM"}, {"measurement": "MIC", "setting": "[35]", "value": 30.7, "unit": "µM"}, {"measurement": "MIC", "setting": "[36]", "value": 0.961, "unit": "µM"}, {"measurement": "MIC", "setting": "[37]", "value": 30.7, "unit": "µM"}, {"measurement": "MIC", "setting": "[38]", "value": "≥ 61.5", "unit": "µM"}]}, {"smiles": "CSCC[C@@H]1NC(=O)[C@H](CC(C)C)NC(=O)[C@H](CCCNC(=N)N)NC(=O)[C@H](CO)NC(=O)[C@@H]2CSSC[C@@H]3NC(=O)[C@H](CO)NC(=O)CNC(=O)[C@H]([C@@H](C)O)NC(=O)[C@H](CSSC[C@H](N)C(=O)N[C@@H](CCCCN)C(=O)NCC(=O)N[C@@H](CCCCN)C(=O)NCC(=O)N[C@@H](C)C(=O)N[C@@H](CCCCN)C(=O)N2)NC(=O)[C@H](CSSC[C@@H](C(N)=O)NC(=O)[C@H](CCCCN)NC(=O)CNC(=O)[C@H](CO)NC(=O)[C@H](CCCNC(=N)N)NC3=O)NC(=O)[C@H](CC(=O)O)NC(=O)[C@H](Cc2ccc(O)cc2)NC1=O", "note": "[CKGKGAKCSRLMYDCCTGSCRSGKC]", "values": [{"measurement": "MIC", "setting": "[26]", "value": "> 500", "unit": "µM"}, {"measurement": "MIC", "setting": "[39]", "value": "> 500", "unit": "µM"}, {"measurement": "MIC", "setting": "[40]", "value": "≥ 39.8", "unit": "µM"}, {"measurement": "MIC", "setting": "[41]", "value": "> 500", "unit": "µM"}]}]}
